The values below are quoted from earlier work in PMC9128007 (ACS Pharmacology & Translational Science, 2022).

The structures appear in SMILES notation.

In the data set the test system is panel of seven proteases including selected cysteine (3), serine (3), and aspartyl (1) proteases.

With `CC(C)(C)[C@H](NC(=O)C(F)(F)F)C(=O)N1C[C@H]2[C@@H]([C@H]1C(=O)N[C@H](C#N)C[C@@H]1CCNC1=O)C2(C)C` [Nirmatrelvir], the “activity in a panel of seven proteases” value is given as “lack of activity”.
